Entries after “also recorded” stand apart in the source; their conditions may differ. One block for each molecule: values may come before it.
Experiments:
[1] = tested on: normal lung fibroblast MRC5; experiment: MTT assay, MRC5 cells; format: cell-based, human; conditions: MRC5, 72-h incubation, Table 5
Experimental: (§6) Solutions of the platinum compounds were freshly prepared in sterile PBS before use and their concentrations quantitated by atomic absorption spectroscopy. Cells were seeded on a 96-well plate (1200 cells per well for cancer cells and 1800 cells per well for the normal lung fibroblasts) in 100 μL RPMI or DMEM media, and incubated for 24 h. […] The cells were then treated with 20 μL of 3-(4,5-dimethylthiazol-2-yl)-2,5-diphenyltetrazolium bromide (MTT) (5 mg/mL in PBS) and incubated for 4 h. The medium was removed, 100 μL of DMSO was added to the cells, and the absorbance of the purple formazan was recorded at 560 nm using a BioTek Synergy HT multi-detection microplate plate reader. Each condition was performed in triplicate and three independent experiments were carried out for each cell line.

[2] = tested on: human lung carcinoma A549 cells; experiment: MTT assay, A549 cells; format: cell-based
Experimental: as §6
Solutions of the platinum agents were freshly prepared in sterile PBS before use and the platinum content was quantitated by AAS. Cells were seeded on 96 well plates (1200 cells per well) in 100 μL RPMI or DMEM media\ and incubated for 24 hours. […] The cells were then treated with 20 μL of 3-(4,5-dimethylthiazol-2-yl)-2,5-diphenyltetrazolium bromide (MTT) (5 mg/mL in PBS) and incubated for 4 h. The medium was removed, 100 μL of DMSO were added to the cells, and the absorbance of the purple formazan was recorded at 570 nm using a BioTek Synergy HT multi-detection microplate plate reader. For each cell line, three independent experiments were carried out in triplicate.

pGLuc plasmid = experiment: Global platination of pGLuc plasmid; conditions: for level of DNA-bound compound per amount added (rb vs. rf): 16 h, 24 mM HEPES pH 7.4, 10 mM NaCl; for level of DNA-bound compound per amount added (rb vs. rf) / rb (bound Pt/nucleotide): 37° C.
Experimental: The resulting mixtures were dialyzed (molecular weight cut-off 3.5 kDa) against ddH2O overnight at 4° C. with five changes of ddH2O. The rb values (bound Pt/nucleotide) were determined by UV/Vis and atomic absorption spectroscopy.
In one embodiment, the ratio of bound platinum per plasmid was determined by measuring the Pt concentration by atomic absorption spectroscopy and the DNA concentration by UV/Vis spectroscopy.

[3] = equimolar N-AcMet, 37° C.
Experimental: NMR spectra were collected on a Varian 500 spectrometer equipped with a triple-resonance broadband inverse probe and a variable temperature unit. The 1-D ^1H NMR kinetic studies were performed in duplicate as a standard time-arrayed experiment using a variable delayed list. Incremented 1-D spectra were processed in exactly the same way and signals of aromatic amine ligands from platinum compounds were integrated. The relative concentrations of the platinum compound at each time point were calculated from peak integrals. […] Reactions of platinum compounds with N-AcMet were performed in NMR tubes containing 2 mM of the Pt complex and 2 mM (1 equiv) of N-AcMet in 10 mM PBS buffer, D2O, pH*7.4 at 37° C. […] Deuterated 3-(trimethylsilyl)propionic acid sodium salt (TMS-PFASS) was used as an internal standard. The pH* values are the measured pH values without correction for the effect of deuterium on the electrode.
(pH*=refers to a pH measurement uncorrected for the effect of deuterium on the electrode.)

[4] = Aquation in D2O by 1H NMR; conditions: 37° C.
Experimental: The 1-D ^1H NMR kinetic studies were performed in duplicate as a standard time-arrayed experiment using a variable delayed list. Incremented 1-D spectra were processed in exactly the same way and signals of aromatic amine ligands from platinum compounds were integrated. The relative concentrations of the platinum compound at each time point were calculated from peak integrals. […] Reactions of platinum compounds with 5′-dGMP were performed in NMR tubes containing 2 mM of the platinum compounds and 32 mM (16 equiv) of 5′-dGMP in 10 mM PBS buffer, D2O, pH*7.4 at 37° C.

[5] = tested on: GLuc expression from transfected A549 cells; experiment: GLuc transcription assay, globally platinated probes, A549; format: cell-based, human; conditions: for transcription level (normalized against unplatinated plasmid): Pt/DNA ratio of […] for phenanthriplatin; for transcription inhibition, in words: globally platinated probes
Experimental: (§1) Transfection of transcription probes into A549 and HT29 cells with the pGLuc plasmid was carried out using liposomal transfecting agents. Determination of expression levels was tested by Luciferase assays monitored by a luminometer (J. Am. Chem. Soc. 2010, 132, 7429-7435). A549 cells were plated in 96-well plates at 2,000 cells/well and HT29 cells were plated in 96-well plates at 6,000 cells/well. After 48 h incubation (at ˜30% confluence), cells were transfected with 50 ng of platinated plasmids in 25 μL Opti-MEM and 0.125 μL Lipofectamine 2000, and subsequently 50 μL of antibiotics-free DMEM supplemented with 10% FBS. After 2 h, the cells were washed with medium and 100 μL of fresh medium was added. The experiment was carried out in quadruplicate.
(§2) GLuc activity was monitored using a luminescence plate reader (Synergy 2, BioTek, Winooski, Vt., USA). A 10 μL volume of medium at different time points (12, 24, 36, 48, 60 h) was transferred into opaque white 96-well plates, and 25 μL of GLuc assay solution (10 μM colelenterazine (NanoLight Technologies, Pinetop, Ariz., USA) in 2.5 mM acidified methanol (100 mM HCl), buffer (10 mM Tris-HCl pH 7.8, 1 mM EDTA, 0.6 M NaCl)) was added by the automatic injector of the instrument.
(§3) Investigations of the cellular processing of Pt-DNA lesions are important for understanding the mechanism of action of platinum drugs. One of the major consequences of Pt-DNA damage is transcription inhibition, the extent of which dictates the efficacy of Pt drugs.
(§4) A549 or HT29 cells were transfected using these platinated transcription probes for 2 h at 37° C. and cell media were collected at 12, 24, 36, 48, and 60 h after the transfection. The levels of GLuc expression in cells were measured using a luminometer. The intensity values were normalized against controls (unplatinated plasmid). Transcription profiles were obtained by plotting normalized levels of GLuc expression against platination levels (Pt/plasmid ratio) at five different time points (FIG. 5). […] In FIG. 5: transcription profiles of globally platinated probes in A549 (top) and HT29 (bottom) cells.
(§5) In another embodiment, A549 or HT29 cells were transfected using the platinated transcription probes, and transcription levels were investigated by determining GLuc expression as measured by […] following addition of coelenterazine as a substrate for the exported enzyme. The emission intensities were normalized against unplatinated plasmids as a control. Transcription profiles were obtained by plotting normalized levels of GLuc expression against platination levels (Pt/plasmid ratio) at five different time points. […] An increase in D0 value at different time points represents restoration of transcription.

[6] = 16 equiv 5′-dGMP, 37° C., PBS pH 7.4
Experimental: The 1-D ^1H NMR kinetic studies were performed in duplicate as a standard time-arrayed experiment using a variable delayed list. Incremented 1-D spectra were processed in exactly the same way and signals of aromatic amine ligands from platinum compounds were integrated. The relative concentrations of the platinum compound at each time point were calculated from peak integrals. […] Reactions of platinum compounds with 5′-dGMP were performed in NMR tubes containing 2 mM of the platinum compounds and 32 mM (16 equiv) of 5′-dGMP in 10 mM PBS buffer, D2O, pH*7.4 at 37° C. Deuterated 3-(trimethylsilyl)propionic acid sodium salt (TMS-PFASS) was used as an internal standard. The pH* values are the measured pH values without correction for the effect of deuterium on the electrode.

calf thymus DNA = experiment: Ethidium bromide DNA-binding competition, Scatchard analysis; set-up: key: competitive (type A); non-competitive (type D); both (type B); No inhibition of ethidium binding is labeled as type C
Text: Using this approach, it is possible to determine whether the inhibition of ethidium binding is competitive (type A), non-competitive (type D), or both (type B). No inhibition of ethidium binding is labeled as type C.

[7] = tested on: GLuc expression from transfected HT29 cells; experiment: GLuc transcription assay, globally platinated probes, HT29; format: cell-based, human; conditions: for transcription level (normalized against unplatinated plasmid): Pt/DNA ratio of […] for phenanthriplatin; for transcription inhibition, in words: globally platinated probes
Experimental: as §1, §2, §3, §4, §5

[8] = tested on: human bone sarcoma U2OS cells; experiment: MTT assay, U2OS cells; format: cell-based; conditions: 72-h incubation
Experimental: Human colon carcinoma HT29, human breast carcinoma MCF7, human bone sarcoma U2OS, human prostate carcinoma PC3, and human cervix carcinoma HeLa cells were obtained from the ATCC. A2780/CP70 cisplatin-resistant human ovarian cancer cells were kindly provided by Dr. Stephen B. Howell (Moores UCSD Cancer Center) and the human lung carcinoma cell lines A549 and normal lung fibroblast MRC5 by David E. Root (Whitehead Institute for Biomedical Research). Cells were incubated at 37° C. in 5% CO2 and grown in RPMI (HT29, A2780/CP70, and PC3) or DMEM (A549, MRC5, HeLa, MCF7, and U2OS) medium supplemented with 10% fetal bovine serum and 1% penicillin/streptomycin. Cells were passed every 3 to 4 days and restarted from a frozen stock upon reaching pass number 20.
Solutions of the platinum compounds were freshly prepared in sterile PBS before use and their concentrations quantitated by atomic absorption spectroscopy. […] The cells were then treated with 20 μL of 3-(4,5-dimethylthiazol-2-yl)-2,5-diphenyltetrazolium bromide (MTT) (5 mg/mL in PBS) and incubated for 4 h. The medium was removed, 100 μL of DMSO was added to the cells, and the absorbance of the purple formazan was recorded at 560 nm using a BioTek Synergy HT multi-detection microplate plate reader. Each condition was performed in triplicate and three independent experiments were carried out for each cell line. […]

NTera2 (Testis) cells = experiment: MTT assay, NTera2 cells; format: cell-based, human; conditions: 72-h incubation, Table 3
Experimental: as §6

[9] = tested on: human cervix carcinoma HeLa cells; experiment: MTT assay, HeLa cells; format: cell-based; conditions: 72-h incubation, Table 5
Experimental: as §6
Solutions of the platinum agents were freshly prepared in sterile PBS before use and the platinum content was quantitated by AAS. […] The medium was removed, 100 μL of DMSO were added to the cells, and the absorbance of the purple formazan was recorded at 570 nm using a BioTek Synergy HT multi-detection microplate plate reader. […]

[10] = tested on: human colon carcinoma HT29 cells; experiment: MTT assay, HT29 cells; format: cell-based; conditions: HT29, 72-h incubation, Table 5
Experimental: Solutions of the platinum compounds were freshly prepared in sterile PBS before use and their concentrations quantitated by atomic absorption spectroscopy. Cells were seeded on a 96-well plate (1200 cells per well for cancer cells and 1800 cells per well for the normal lung fibroblasts) in 100 μL RPMI or DMEM media, and incubated for 24 h. […] The medium was removed, 100 μL of DMSO was added to the cells, and the absorbance of the purple formazan was recorded at 560 nm using a BioTek Synergy HT multi-detection microplate plate reader. […]

IC50 ([2]; A549, 72-h incubation, Table 5): 62.1 ± 2.3 µM
Molecule: pyriplatin
IC50 [1]: 82.1 µM | level of DNA-bound compound per amount added (rb vs. rf) (pGLuc plasmid): almost identical to that of cisplatin | Pt per plasmid (pGLuc plasmid; rf 0.0016): 13.33 Pt per plasmid | rb (bound Pt/nucleotide) (pGLuc plasmid; rf 0.0016, 16 h): 0.0017 | Pt per plasmid (pGLuc plasmid; rf 0.004): 31.19 Pt per plasmid | rb (bound Pt/nucleotide) (pGLuc plasmid; rf 0.004, 16 h): 0.0039 | Pt per plasmid (pGLuc plasmid; rf 0.0076): 57.96 Pt per plasmid | rb (bound Pt/nucleotide) (pGLuc plasmid; rf 0.0076, 16 h): 0.0073 | Pt per plasmid (pGLuc plasmid; rf 0.015): 117.31 Pt per plasmid | rb (bound Pt/nucleotide) (pGLuc plasmid; rf 0.015, 16 h): 0.0015 | reaction with N-AcMet more rapid than that for phenanthriplatin [3]: > 10 fold | second-order rate constant, reaction with N-AcMet [3]: 0.156 M⁻¹ s⁻¹ | time to complete aquation (equilibrium with aqua analogue) [4]: ≤ 1 h | transcription level (normalized against unplatinated plasmid) ([5]; 12 h): 55.2% | transcription level (normalized against unplatinated plasmid) ([5]; 60 h): 66.8% | transcription inhibition, in words [5]: less efficient than that of either cisplatin or phenanthriplatin by a factor of two | pseudo-first order rate constant, reaction with 5′-dGMP [6]: 0.29 h⁻¹ | type of inhibition of ethidium binding (calf thymus DNA; 12-h incubation period): C | type of inhibition of ethidium binding (calf thymus DNA; 1 min incubation period): C | transcription level (normalized against unplatinated plasmid) ([7]; 12 h): 55.3% | transcription level (normalized against unplatinated plasmid) ([7]; 60 h): 75.2% | transcription inhibition, in words [7]: less efficient than that of either cisplatin or phenanthriplatin by a factor of two

Molecule: cis-[Pt(NH3)2(phenanthridine)Cl]NO3 [phenanthriplatin]
level of DNA-bound compound per amount added (rb vs. rf) (pGLuc plasmid): almost identical to that of cisplatin | rb (bound Pt/nucleotide) (pGLuc plasmid; rf 0.0008, 16 h): 0.0015 | rb (bound Pt/nucleotide) (pGLuc plasmid; rf 0.0019, 16 h): 0.0019 | rb (bound Pt/nucleotide) (pGLuc plasmid; rf 0.0029, 16 h): 0.0030 | rb (bound Pt/nucleotide) (pGLuc plasmid; rf 0.0060, 16 h): 0.0053 | time to complete aquation (equilibrium with aqua analogue) [4]: ≤ 1 h | transcription inhibition, in words [5]: as strongly as cisplatin; also recorded: as efficiently as cisplatin | type of inhibition of ethidium binding (calf thymus DNA; 12-h incubation period): D | type of inhibition of ethidium binding (calf thymus DNA; 1 min incubation period): C | transcription inhibition, in words [7]: as strongly as cisplatin; also recorded: as efficiently as cisplatin

Molecule: O=C1[O][Pt]2([NH][C@@H]3CCCC[C@H]3[NH]2)[O]C1=O [oxaliplatin]
IC50 ([2]; A549 (Lung), 72-h incubation, Table 3): 8.79 ± 0.26 µM | IC50 ([8]; U2OS (Bone), Table 3): 6.67 ± 0.59 µM | IC50 (NTera2 (Testis) cells): 1.21 ± 0.06 µM

Molecule: O=[N+]([O-])[O-].[NH3+][Pt-2]([NH3+])([Cl])[n+]1cccc2ccccc21 (stereo not drawn) [cis-[Pt(NH3)2(quinoline)Cl]NO3]
IC50 [1]: 23.5 ± 1.6 µM | IC50 ([2]; A549, 72-h incubation, Table 5): 6.11 ± 0.68 µM | IC50 [9]: 12.2 ± 0.8 µM | IC50 ([8]; U2OS, Table 5): 23.5 ± 2.7 µM | IC50 [10]: 38 ± 4.5 µM

— US20130029959A1, “COMPOSITIONS AND METHODS FOR THE TREATMENT OF CANCER” (Massachusetts Institute of Technology, priority 2011, published 2013)
